Assay results from US20040009904A1, “APL immunoreactive peptides, conjugates thereof and methods of treatment for aPL antibody-mediated pathologies” (priority 1995, published 2004).
Bridge positions count the residues as written; N and C are the ends. Peptide text beside a SMILES is read from it.

Columns and labels:
ACA-6501 [1] = experiment: Competitive binding peptide ACA ELISA, cardiolipin/β2-GPI-coated plates; design: species or system human; details: peptide 1 mg/mL, affinity purified antibody
How it was run: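 Monomeric peptides at several amounts were preincubated ~1 h at RT with ACA-6501 serum (final 1:400), then added to cardiolipin-coated, fish-gelatin-blocked plates with β2-GPI for 1 h at RT. Bound IgG was detected with alkaline phosphatase anti-human IgG and phenolphthalein monophosphate, read at 550 nm. IC50 was the peptide amount at half-maximal absorbance.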

ACA-6626 = experiment: as above; design: species or system human; details: peptide 1 mg/mL, affinity purified antibody
How it was run: (§1)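 Wells coated with cardiolipin plus IgG-depleted human serum as β2-GPI source; monomeric peptides at several concentrations preincubated with aPL antibody, then added 1 h RT. Bound IgG detected with alkaline phosphatase anti-human IgG, A550; IC50 taken as peptide amount giving half-maximal absorbance.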

ACA-6638 = experiment: as above; design: species or system human; details: peptide 1 mg/mL, affinity purified antibody
How it was run: as §1

ACA-6641 = experiment: as above; design: species or system human; details: peptide 1 mg/mL, affinity purified antibody
How it was run: as §1

ACA-6644 = experiment: as above; design: species or system human; details: peptide 1 mg/mL, affinity purified antibody
How it was run: as §1

ACA-6701 = experiment: as above; design: species or system human; details: peptide 1 mg/mL, affinity purified antibody
How it was run: as §1

ACA-6903 = experiment: as above; design: species or system human; details: peptide 1 mg/mL, affinity purified antibody
How it was run: as §1

ACA-7004 = experiment: as above; design: species or system human; details: peptide 1 mg/mL, affinity purified antibody
How it was run: as §1

ACA-7005 = experiment: as above; design: species or system human; details: peptide 1 mg/mL, affinity purified antibody
How it was run: as §1

ACA antibodies = experiment: Competitive binding peptide ACA ELISA, cardiolipin/β2-GPI-coated plates, panel of ACA antibodies (average); design: species or system human; details: peptide 1 mg/mL, average over nine antibodies
Description: A variation of this assay uses microtitration plates coated with human β2-glycoprotein I/cardiolipin (β2-GPI/CL) instead of tetravalent peptide and tests the ability of monomeric peptides to block the binding of aPL antibody to the epitope(s) on β2-GPI/CL. In this assay, IgG-depleted human serum at an optimized concentration is used as a source of β2-GPI. The monomeric peptides at several concentrations are incubated with an optimized concentration of aPL antibody in a manner analogous to the assay which employs tetravalent peptide as a plate substrate. Following the incubation of aPL/peptide in (β2-GPI/CL) plates, antibody binding and the peptide concentration required for 50% inhibition is determined at half-maximal absorbance as in the tetravalent assay.
Peptide sequences for all five peptides immediately follow the table. All were tested using the competitive binding peptide ACA ELISA using CL/β2-GPI plates as described herein.
As noted in Section I above, one synthetic peptide, 6641/3G3 was tested against several high titer ACA antisera. This peptide appeared to be crossreactive with the vast majority of ACA antisera tested as illustrated in FIG. 14.
(B) Immulon I® 96-well, flat-bottom, polystyrene microtitration plates (Dynatech Laboratories, Inc., Chantilly, Va.) were coated with 30 μL/well of cardiolipin (CL, 50 μg; Sigma Chemical Co., St. Louis, Mo.) in ethanol. Two control wells received 30 μL ethanol only. After overnight evaporation at 4° C., each well was blocked with 200 μL of 5% (w/v) fish gelatin in PBS for 2 hours at RT.
The CL/β2-GPI microtitration plate was washed 5 times with TBS and 100 μL aliquots in duplicate from Eppendorf tubes #1, 2, 3, and 4 containing the antibody-peptide (or no peptide mixtures) were added to the wells. A volume of 100 μL from tube #4 was added to the duplicate control wells containing no cardiolipin. The microtitration plate was incubated for 1 hour at RT with agitation at 40 rpm in an orbital shaker (American Scientific, Rotator V), washed 5 times with TBS and then 100 μL of 1:1000 goat anti-human IgG alkaline phosphatase conjugate (Zymed, Cat No. 62-8422) in 0.5% (w/v) BSA-TBS was added. Following incubation for 1 hour at RT, the microtitration plate was again washed 5 times with TBS and the colorimetric enzyme detection developed by adding 100 μL of PMPP solution (7.8 g phenolphthalein monophosphate plus 69.5 g of 2-amino-2-methyl-1-propanol in 100 mL water stock solution diluted 1:26 with water). After 21 minutes, the reaction was stopped by adding 50 μL of 0.2 M Na2HPO4 (Mallinckrodt) to each well. Absorbance at 550 nm was read in a microplate reader (Bio-Tek Instruments, Model EL 311). The amount of peptide that inhibited ACA-6501 binding by 50%, the IC50, was calculated from the graph at the intersection of half-maximal absorbance with amount of peptide added.

ACA-6501 [2] = experiment: Phage-ELISA; format: binding, human; details: phage clones coated on wells, affACA-6501 2.5 μg/mL
Description: This method of selecting phage requires very tight binding of the insert to the screening antibody. Phage are directly coated onto wells of a microtitration plate and incubated with the screening antibody. Following washes to remove unbound antibody, an anti-human IgG alkaline phosphatase conjugate is added to bind any aPL antibodies bound to the phage. APL antibodies are then detected by adding a calorimetric substrate to the well which will react with alkaline phosphatase according to methods well known in the art.
Three mL cultures were prepared from 35 clones previously isolated with affinity purified ACA-6501 in several phage library screens as well as one fUSE 2 phage clone lacking a peptide insert which was used as a control. After centrifugation for 3 minutes at 17,000×g, 100 μL from each phage supernatant (adjusted to −2×10^11 particles/mL, based on absorbance) was added to microtitration plate wells (Falcon, Becton-Dickinson Labware, Lincoln Park, N.Y.) and allowed to incubate overnight at 4° C. Following four washes with TBS 7.4, the plate was blocked with 125 μL of 0.5% BSA/TBS for 1 hour at RT. After another four TBS washes, 100 μL of affACA-6501 previously diluted to 2.5 μg/mL in TBS/BSA was added to each well and allowed to incubate 1 hour at 37° C. Following an additional four washes, 100 μL anti-human IgG diluted 1:1000 in TBS/0.5% Tween was added to each well. After 1 hour at RT, enzyme substrate was added and the incubation allowed to proceed for 2 hours. Following the addition of 50 μL 0.2 M Na2HPO4 to stop the reaction, absorbance was measured at 550 nm in the automated plate absorbance reader. […] The sequences for these clones are showvn in Table 2.

For CC(C)C[C@@H]1NC(=O)[C@H](CC(C)C)NC(=O)[C@H](CC(C)C)NC(=O)[C@@H](NC(=O)[C@@H]2CCCN2C(=O)CNC(=O)[C@H](C)N)CSSC[C@@H](C(=O)N2CCC[C@H]2C(=O)NCC(=O)O)NC(=O)[C@H](CCCNC(=N)N)NC(=O)[C@H](CC(=O)O)NC(=O)[C@@H]2CCCN2C(=O)[C@H](C)NC1=O [3B10, AGPCLLLAPDRCPG] (H-AGPCLLLAPDRCPG-OH; disulfide 4-12), the “Percent Inhibition of AffACA by Peptide Monomers, 6501” value (ACA-6501 [1]) was 60%, the “Percent Inhibition of AffACA by Peptide Monomers, 6626” value (ACA-6626) was 76% and the “Percent Inhibition of AffACA by Peptide Monomers, 6638” value (ACA-6638) was 87%. For the same compound, the “Percent Inhibition of AffACA by Peptide Monomers, 6641” value (ACA-6641) was 52%, the “Percent Inhibition of AffACA by Peptide Monomers, 6644” value (ACA-6644) was 55% and the “Percent Inhibition of AffACA by Peptide Monomers, 6701” value (ACA-6701) was 51%. The “Percent Inhibition of AffACA by Peptide Monomers, 6903” value (ACA-6903) was 69%, the “Percent Inhibition of AffACA by Peptide Monomers, 7004” value (ACA-7004) was 87% and the “Percent Inhibition of AffACA by Peptide Monomers, 7005” value (ACA-7005) was 47%. For the same compound, the “Percent Inhibition of AffACA by Peptide Monomers, Ave.” value (ACA antibodies) was 65% and the “signal in the phage-ELISA” value (ACA-6501 [2]) was “significant signals”.
